Results published in patent publication US20250230172A1 (Vanqua Bio, Inc., priority 2021, published 2025).

target: T1, GCase (Homo sapiens, UniProt P04062); assay: live cell PFB assay in HELA cells for activation of GCase; format: cell-based
T1 construct: endogenous in cells; host or cells: HeLa cells
T1 sequence (P04062 40-536): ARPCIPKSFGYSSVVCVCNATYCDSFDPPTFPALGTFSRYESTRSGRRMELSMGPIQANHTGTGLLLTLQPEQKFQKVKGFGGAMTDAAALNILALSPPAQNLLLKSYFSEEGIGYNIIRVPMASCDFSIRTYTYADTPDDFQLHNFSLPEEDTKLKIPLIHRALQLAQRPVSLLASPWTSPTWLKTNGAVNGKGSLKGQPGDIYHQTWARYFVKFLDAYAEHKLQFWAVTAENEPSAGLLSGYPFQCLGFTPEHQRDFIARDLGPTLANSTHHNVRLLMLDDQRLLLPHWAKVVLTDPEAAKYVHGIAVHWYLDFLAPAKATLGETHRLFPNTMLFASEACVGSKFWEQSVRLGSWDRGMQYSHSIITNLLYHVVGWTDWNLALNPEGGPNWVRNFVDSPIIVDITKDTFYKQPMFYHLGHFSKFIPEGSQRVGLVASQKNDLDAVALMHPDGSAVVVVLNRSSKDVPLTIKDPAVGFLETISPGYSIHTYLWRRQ
Description: Exemplary compounds were evaluated for activation of GCase in a live cell PFB assay in HELA cells (essentially as described in Ysselstein et al., “LRRK2 kinase activity regulates lysosomal glucocerebrosidase in neurons derived from Parkinson's disease patients” Nature Communications (2019) 10:5570). […] EC50 ranges: A: <10 μM; B: >10-50 μM; C: >50-100 μM; D: >100 μM.

| Structure (SMILES) | EC50 |
| --- | --- |
| FC(F)Cn1ncc2ncc(NC3C[C@@H]4CN(c5ncccc5C(F)(F)F)C[C@@H]4C3)nc21 (stereo partly drawn) [Compound 41, (3aR,5S,6aS)—N-[1-(2,2-difluoroethyl)-1H-pyrazolo[3,4-b]pyrazin-6-yl]-2-[3-(trifluoromethyl)pyridin-2-yl]-octahydrocyclopenta[c]pyrrol-5-amine] | > 100 µM |
| FC(F)Cn1ncc2ncc(N[C@H]3C[C@@H]4CN(c5ccc(C(F)(F)F)nc5)C[C@@H]4C3)nc21 [Compound 42, (3aR,5S,6aS)—N-[1-(2,2-difluoroethyl)-1H-pyrazolo[3,4-b]pyrazin-6-yl]-2-[6-(trifluoromethyl)pyridin-3-yl]-octahydrocyclopenta[c]pyrrol-5-amine] | 10 to 50 µM |
| FC(F)Cn1ncc2ncc(N3C[C@H]4CN(c5cc(C(F)(F)F)ccn5)C[C@H]4C3)nc21 [Compound 43, rac-2-[(3aR,6aS)-5-[1-(2,2-difluoroethyl)-1H-pyrazolo[3,4-b]pyrazin-6-yl]-octahydropyrrolo[3,4-c]pyrrol-2-yl]-4-(trifluoromethyl)pyridine] | < 10 µM |
| FC(F)Cn1ncc2ncc(N3C[C@H]4CN(c5cccc(C(F)(F)F)n5)C[C@H]4C3)nc21 [Compound 45, rac-2-[(3aR,6aS)-5-[1-(2,2-difluoroethyl)-1H-pyrazolo[3,4-b]pyrazin-6-yl]-octahydropyrrolo[3,4-c]pyrrol-2-yl]-6-(trifluoromethyl)pyridine] | > 100 µM |
| FC(F)Cn1ncc2ncc(N3C[C@H]4CN(c5ccc(C(F)(F)F)nc5)C[C@H]4C3)nc21 [Compound 47, rac-5-[(3aR,6aS)-5-[1-(2,2-difluoroethyl)-1H-pyrazolo[3,4-b]pyrazin-6-yl]-octahydropyrrolo[3,4-c]pyrrol-2-yl]-2-(trifluoromethyl)pyridine] | 10 to 50 µM |
| FC(F)Cn1ncc2ncc(N3C[C@@H]4CN(c5cccnc5C(F)(F)F)C[C@@H]4C3)nc21 [Compound 49, rac-3-[(3aR,6aS)-5-[1-(2,2-difluoroethyl)-1H-pyrazolo[3,4-b]pyrazin-6-yl]-octahydropyrrolo[3,4-c]pyrrol-2-yl]-2-(trifluoromethyl)pyridine] | 10 to 50 µM |
| FC(F)Cn1ncc2ncc(N[C@@H]3C[C@@H]4CN(c5ccc(C(F)(F)F)cn5)C[C@@H]4C3)nc21 [Compound 51, (3aR,5S,6aS)—N-[1-(2,2-difluoroethyl)-1H-pyrazolo[3,4-b]pyrazin-6-yl]-2-[5-(trifluoromethyl)pyridin-2-yl]-octahydrocyclopenta[c]pyrrol-5-amine] | < 10 µM |
| FC(F)Cn1ncc2ncc(N[C@@H]3C[C@@H]4CN(c5cncc(C(F)(F)F)c5)C[C@@H]4C3)nc21 [Compound 52, (3aR,5S,6aS)—N-[1-(2,2-difluoroethyl)-1H-pyrazolo[3,4-b]pyrazin-6-yl]-2-[5-(trifluoromethyl)pyridin-3-yl]-octahydrocyclopenta[c]pyrrol-5-amine] | < 10 µM |
| FC(F)Cn1ncc2ncc(N[C@H]3C[C@@H]4CN(c5cncc(C(F)(F)F)c5)C[C@@H]4C3)nc21 [Compound 53, (3aR,5S,6aS)—N-[1-(2,2-difluoroethyl)-1H-pyrazolo[3,4-b]pyrazin-6-yl]-2-[5-(trifluoromethyl)pyridin-3-yl]-octahydrocyclopenta[c]pyrrol-5-amine] | < 10 µM |
| CN(c1cnc2cnn(CC(F)F)c2n1)[C@H]1C[C@@H]2CN(c3cncc(C(F)(F)F)c3)C[C@@H]2C1 [Compound 54, (3aR,5S,6aS)—N-[1-(2,2-difluoroethyl)-1H-pyrazolo[3,4-b]pyrazin-6-yl]-N-methyl-2-[5-(trifluoromethyl)pyridin-3-yl]-octahydrocyclopenta[c]pyrrol-5-amine] | 10 to 50 µM |
| FC(F)Cn1ncc2ncc(-n3cc4c(n3)CCN(c3ncccc3C(F)(F)F)C4)nc21 [Compound 63, 1-(2,2-difluoroethyl)-6-(5-(3-(trifluoromethyl)pyridin-2-yl)-4,5,6,7-tetrahydro-2H-pyrazolo[4,3-c]pyridin-2-yl)-1H-pyrazolo[3,4-b]pyrazine] | < 10 µM |
| FC(F)Cn1ncc2ncc(-n3ncc4c3CCN(c3ncccc3C(F)(F)F)C4)nc21 [Compound 64, 1-(2,2-difluoroethyl)-6-(5-(3-(trifluoromethyl)pyridin-2-yl)-4,5,6,7-tetrahydro-1H-pyrazolo[4,3-c]pyridin-1-yl)-1H-pyrazolo[3,4-b]pyrazine] | 10 to 50 µM |
| O=C1C2CN(c3cnc4cnn(CC(F)F)c4n3)CCC2CN1c1cccc(C(F)(F)F)n1 (centres unmarked) [Compound 65, 5-(1-(2,2-difluoroethyl)-1H-pyrazolo[3,4-b]pyrazin-6-yl)-2-(6-(trifluoromethyl)pyridin-2-yl)octahydro-3H-pyrrolo[3,4-c]pyridin-3-one] | < 10 µM |
| O=C1CC2CN(c3cccc(C(F)(F)F)n3)CC2CN1c1cnc2cnn(CC(F)F)c2n1 (centres unmarked) [Compound 66, 5-(1-(2,2-difluoroethyl)-1H-pyrazolo[3,4-b]pyrazin-6-yl)-2-(6-(trifluoromethyl)pyridin-2-yl)octahydro-6H-pyrrolo[3,4-c]pyridin-6-one] | 10 to 50 µM |
| O=C1C2CCN(c3cnc4cnn(CC(F)F)c4n3)CC2CN1c1cccc(C(F)(F)F)n1 (centres unmarked) [Compound 67, 5-(1-(2,2-difluoroethyl)-1H-pyrazolo[3,4-b]pyrazin-6-yl)-2-(6-(trifluoromethyl)pyridin-2-yl)octahydro-1H-pyrrolo[3,4-c]pyridin-1-one] | < 10 µM |
| FC(F)Cn1ncc2ncc(N3CC[C@H]4CN(c5ccc(C(F)(F)F)cn5)C[C@@H]4C3)nc21 [Compound 69, 1-(2,2-difluoroethyl)-6-((3aS,7aR)-2-(5-(trifluoromethyl)pyridin-2-yl)octahydro-5H-pyrrolo[3,4-c]pyridin-5-yl)-1H-pyrazolo[3,4-b]pyrazine] | 10 to 50 µM |
| COc1cncc(N2C[C@H]3C[C@H](Nc4cnc5cnn(CC(F)F)c5n4)C[C@H]3C2)n1 [Compound 76, 1-(2,2-difluoroethyl)-N-((3aR,5s,6aS)-2-(6-methoxypyrazin-2-yl)octahydrocyclopenta[c]pyrrol-5-yl)-1H-pyrazolo[3,4-b]pyrazin-6-amine] | 10 to 50 µM |
| COc1cnc(N2C[C@H]3C[C@H](Nc4cnc5cnn(CC(F)F)c5n4)C[C@H]3C2)cn1 [Compound 77, 1-(2,2-difluoroethyl)-N-((3aR,5s,6aS)-2-(5-methoxypyrazin-2-yl)octahydrocyclopenta[c]pyrrol-5-yl)-1H-pyrazolo[3,4-b]pyrazin-6-amine] | > 100 µM |
| FC(F)Cn1ncc2ncc(N[C@H]3C[C@@H]4CN(c5cncc(C(F)(F)F)n5)C[C@@H]4C3)nc21 [Compound 78, 1-(2,2-difluoroethyl)-N-((3aR,5s,6aS)-2-(6-(trifluoromethyl)pyrazin-2-yl)octahydrocyclopenta[c]pyrrol-5-yl)-1H-pyrazolo[3,4-b]pyrazin-6-amine] | < 10 µM |
| FC(F)Cn1ncc2ncc(N[C@H]3C[C@@H]4CN(c5cnc(C(F)(F)F)cn5)C[C@@H]4C3)nc21 [Compound 79, 1-(2,2-difluoroethyl)-N-((3aR,5s,6aS)-2-(5-(trifluoromethyl)pyrazin-2-yl)octahydrocyclopenta[c]pyrrol-5-yl)-1H-pyrazolo[3,4-b]pyrazin-6-amine] | 10 to 50 µM |
